Reference: article PMC6418866 (Journal of the American Chemical Society, 2019)
pIC50: −log10 of the molar value. Read-outs that look alike come from different tables or passages of the source.

What was measured:
GAA = molecular target: T1, GAA (Danio rerio, UniProt A0A8M1QKP5); assay: In vivo GAA inactivation in zebrafish larvae, ABP labeling; details: 0.1–10 μM, 5 days in vivo
T1 sequence (A0A8M1QKP5 31-918): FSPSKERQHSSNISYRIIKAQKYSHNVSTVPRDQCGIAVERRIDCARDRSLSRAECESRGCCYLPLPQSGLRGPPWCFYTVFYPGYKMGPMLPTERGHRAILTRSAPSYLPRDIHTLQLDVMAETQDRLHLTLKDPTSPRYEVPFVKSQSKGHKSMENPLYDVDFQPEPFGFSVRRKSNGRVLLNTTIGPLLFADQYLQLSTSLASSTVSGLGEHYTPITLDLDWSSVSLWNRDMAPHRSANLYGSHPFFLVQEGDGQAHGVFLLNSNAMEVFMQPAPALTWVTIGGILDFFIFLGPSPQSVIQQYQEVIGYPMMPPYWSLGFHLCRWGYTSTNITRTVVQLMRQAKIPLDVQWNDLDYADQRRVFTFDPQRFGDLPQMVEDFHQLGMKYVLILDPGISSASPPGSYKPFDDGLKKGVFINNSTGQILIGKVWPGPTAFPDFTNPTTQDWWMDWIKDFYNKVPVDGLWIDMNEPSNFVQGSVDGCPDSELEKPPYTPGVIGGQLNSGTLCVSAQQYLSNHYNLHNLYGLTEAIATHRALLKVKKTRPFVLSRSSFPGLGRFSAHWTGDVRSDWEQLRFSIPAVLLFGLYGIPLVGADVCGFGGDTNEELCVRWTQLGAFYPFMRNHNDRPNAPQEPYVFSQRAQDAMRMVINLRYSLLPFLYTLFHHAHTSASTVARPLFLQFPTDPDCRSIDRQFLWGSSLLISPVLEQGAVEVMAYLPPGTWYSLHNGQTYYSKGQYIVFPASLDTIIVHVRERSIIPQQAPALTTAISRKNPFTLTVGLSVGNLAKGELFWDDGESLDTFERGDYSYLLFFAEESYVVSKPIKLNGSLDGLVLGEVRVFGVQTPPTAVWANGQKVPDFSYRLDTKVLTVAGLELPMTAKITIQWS

GBA [1] = molecular target: T2, GBA (Danio rerio, UniProt E7EZM1); assay: In vivo GBA inactivation in zebrafish larvae, quantified by ABP labeling; details: 0.1–10 μM, 5 days in vivo
T2 sequence (E7EZM1 20-518): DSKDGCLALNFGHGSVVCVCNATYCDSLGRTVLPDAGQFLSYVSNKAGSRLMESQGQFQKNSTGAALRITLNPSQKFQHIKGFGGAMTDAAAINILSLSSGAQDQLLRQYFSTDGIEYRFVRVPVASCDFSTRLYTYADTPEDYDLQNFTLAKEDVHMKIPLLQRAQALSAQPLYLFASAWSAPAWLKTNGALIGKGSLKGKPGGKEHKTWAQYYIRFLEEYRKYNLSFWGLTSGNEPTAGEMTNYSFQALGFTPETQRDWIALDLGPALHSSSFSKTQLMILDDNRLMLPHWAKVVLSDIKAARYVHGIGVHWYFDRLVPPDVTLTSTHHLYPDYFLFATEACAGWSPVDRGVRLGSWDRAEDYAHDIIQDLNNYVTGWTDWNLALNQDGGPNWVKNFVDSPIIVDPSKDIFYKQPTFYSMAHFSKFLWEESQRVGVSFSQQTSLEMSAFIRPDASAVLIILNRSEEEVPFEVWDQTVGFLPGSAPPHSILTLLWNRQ

ER α-glucosidase GANAB = assay: In vivo GANAB labeling in zebrafish larvae, competitive ABPP; details: 0.1–10 μM, 5 days in vivo
LPH = assay: In vivo LPH labeling in zebrafish larvae, competitive ABPP; details: 0.1–10 μM, 5 days in vivo
[2] = molecular target: T3, recombinant human GBA (rGBA, Cerezyme) (Homo sapiens, UniProt P04062, R534H); assay: In vitro inhibition of rGBA, 4-MU fluorogenic substrate assay; details: Apparent IC50, in vitro rGBA, 3 h preincubation, 2 nM enzyme
T3 sequence (P04062 40-536 R534H): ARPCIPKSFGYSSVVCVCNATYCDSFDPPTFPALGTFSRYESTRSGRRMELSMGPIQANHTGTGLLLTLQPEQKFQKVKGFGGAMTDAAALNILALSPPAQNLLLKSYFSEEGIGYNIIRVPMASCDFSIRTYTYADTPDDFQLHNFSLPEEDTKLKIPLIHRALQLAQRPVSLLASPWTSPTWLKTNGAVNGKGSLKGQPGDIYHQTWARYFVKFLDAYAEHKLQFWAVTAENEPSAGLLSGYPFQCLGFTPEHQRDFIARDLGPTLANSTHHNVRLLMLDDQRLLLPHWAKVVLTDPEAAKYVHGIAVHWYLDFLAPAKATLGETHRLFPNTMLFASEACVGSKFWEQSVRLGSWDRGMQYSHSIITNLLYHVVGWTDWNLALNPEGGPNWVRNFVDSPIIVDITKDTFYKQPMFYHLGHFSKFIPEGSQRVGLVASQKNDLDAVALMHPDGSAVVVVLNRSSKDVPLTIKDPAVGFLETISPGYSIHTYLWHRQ

GBA2 = molecular target: T4, GBA2 (Danio rerio, UniProt E7F5W0); assay: In vivo GBA2 inactivation in zebrafish larvae, ABP labeling; details: 0.1–10 μM, 5 days in vivo
T4 sequence (E7F5W0 1-851): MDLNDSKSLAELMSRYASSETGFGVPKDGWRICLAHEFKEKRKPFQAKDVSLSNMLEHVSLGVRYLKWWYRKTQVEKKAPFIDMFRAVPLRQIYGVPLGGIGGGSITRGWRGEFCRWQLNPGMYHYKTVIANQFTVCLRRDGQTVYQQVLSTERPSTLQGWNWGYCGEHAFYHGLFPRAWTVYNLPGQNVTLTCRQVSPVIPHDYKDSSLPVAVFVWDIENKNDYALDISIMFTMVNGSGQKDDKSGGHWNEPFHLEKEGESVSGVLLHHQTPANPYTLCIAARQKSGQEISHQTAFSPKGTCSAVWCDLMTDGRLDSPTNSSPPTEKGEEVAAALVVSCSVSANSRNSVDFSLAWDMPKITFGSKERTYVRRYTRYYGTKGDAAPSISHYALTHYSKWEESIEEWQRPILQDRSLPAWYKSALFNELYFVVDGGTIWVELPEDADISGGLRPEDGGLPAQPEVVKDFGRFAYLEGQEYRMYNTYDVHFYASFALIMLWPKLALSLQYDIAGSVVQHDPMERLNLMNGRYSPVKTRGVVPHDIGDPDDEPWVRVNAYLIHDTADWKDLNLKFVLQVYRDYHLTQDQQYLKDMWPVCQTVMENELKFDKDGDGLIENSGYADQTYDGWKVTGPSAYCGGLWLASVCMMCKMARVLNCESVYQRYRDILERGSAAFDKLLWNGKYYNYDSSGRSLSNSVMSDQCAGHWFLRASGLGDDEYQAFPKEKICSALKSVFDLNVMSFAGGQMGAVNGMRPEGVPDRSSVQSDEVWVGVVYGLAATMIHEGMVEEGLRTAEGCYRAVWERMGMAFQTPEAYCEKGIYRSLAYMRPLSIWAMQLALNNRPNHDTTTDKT

[3] = system: glucosylsphingosine (GlcSph); assay: Glucosylsphingosine levels in treated zebrafish embryos; assay type: in vivo, Danio rerio; details: 0.1–10 μM inhibitor, zebrafish embryos treated 5 days
[4] = system: lysosomal β-glucuronidase GUSB; assay: In vivo GUSB labeling in zebrafish larvae, competitive ABPP; details: 0.1–10 μM, 5 days in vivo
GBA [5] = details: cited from earlier work
[6] = molecular target: T3, recombinant human GBA (rGBA, Cerezyme); details: read-out: Apparent IC50, rGBA; 3 h preincubation; cited from earlier work
[7] = molecular target: recombinant human GAA (rGAA, Myozyme) (Homo sapiens, UniProt P10253); assay: In vitro inhibition of rGAA; details: IC50 ratio

For `O[C@@H]1[C@@H](O)[C@@H]2O[C@@H]2[C@H](Cn2cc(CCCOCc3ccc(-c4ccccc4)cc3)nn2)[C@H]1O` [Compound 6, Biphenyl-cyclophellitol], the “ABP labeling of GAA in lysates of treated zebrafish” value (GAA) was “not affected”, the “ABP labeling of GBA with ABP 8 and ABP 5 in lysates of treated zebrafish” value (GBA [1]) was “abrogated” and the “ABP labeling of GANAB in lysates of treated zebrafish” value (ER α-glucosidase GANAB) was “not affected”. For the same compound, the “ABP labeling of LPH in lysates of treated zebrafish” value (LPH) was “not affected”, the pIC50 [2] was 9.00 and the “ABP labeling of GBA2 in lysates of treated zebrafish” value (GBA2) was “not affected”. For the same compound, the “Elevation in the level of glucosylsphingosine (GlcSph)” value [3] was 10–30 fold and the “ABP labeling of GUSB in lysates of treated zebrafish” value [4] was “not affected”.
For `OC[C@@H]1[C@@H](O)[C@H](O)[C@@H](O)[C@@H]2O[C@H]12` [CP 2, cyclophellitol], the “GBA inhibition potency (in words)” value (GBA [5]) is listed as “high nanomolar to micromolar”.
For `O[C@H]1[C@H](O)[C@@H](O)[C@@H]2O[C@@H]2[C@@H]1O` (racemic) [CBE 1, conduritol B epoxide], the pIC50 [6] is listed as 5.37 and the “Ratio (in vitro) GAA/GBA” value [7] is listed as 444.
